Data on two molecules can be found in patent US9072293B2, “Cyclopropenes and method for applying cyclopropenes to agricultural products or crops” (Erum Biotechnologies Inc., priority 2010, dated 2015).

“And” between values parts separate entries of the source, which are not always exact repeats. Identical values can stand only once.

For data set [1] the following is noted: 1,000 ppm (v/v) or less concentration, room temperature; cited from earlier work.
Data set [2] has as its system tomato. As to the kind of experiment: Experimental Example 2: Efficacy test on tomato using oil based formulation (reddening grade). The class given is in vivo. Particulars: 1.0 mM oil-based formulation, individual tomatoes n=4. A digest of the protocol: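 Tomatoes (n=4 per group) sprayed to surface saturation with 1.0 mM oil-based (xylene/hexane) cyclopropene formulations, versus untreated and solvent controls. Kept 3 days at 25–30 °C; ripening scored 0–5 by area of red coloration.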

Data set [3] relates to tomato. As to the kind of experiment: Experimental Example 1: Efficacy test on tomato using emulsion (reddening grade). The class given is in vivo. Particulars: individual tomatoes n=4.
The nature of data set [4]: Relative chemical stability of cyclopropenes measured by 1H-NMR. In kind it is physicochemical. The method in brief: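 Compounds in CDCl3 NMR tubes stored at −20° C. or room temperature and followed by 1H-NMR. Integrals of characteristic 1-alkylcyclopropene peaks (4–6.5 ppm, 1H; 0.8–0.9 ppm, 2H) compared against 1,1,3,3-tetramethylurea internal standard (2.80 ppm); stability expressed relative to chain-length-1 analogue.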

As for `CC1=CC1` [1-methylcyclopropene], the half life in data set [1] is listed as at least 10 days.
For `C1=C(CCCCCc2ccccc2)C1` [(5-Phenylpentyl), 1-(5-phenylpentyl)cyclopropene], the “Tomato results: reddening level (grade 0 to 5)” value was 0 (an area in which the surface of tomato was colored in pink was 10% or less) (2×) and 1 (an area in which the surface of tomato was completely colored in red was 10 to 40%) and 2 (an area in which the surface of tomato was completely colored in red was 40 to 70%) in the data set on tomato [2] (Day 0, room temperature (25-30° C.)); 0 (an area in which the surface of tomato was colored in pink was 10% or less) (2×) and 1 (an area in which the surface of tomato was completely colored in red was 10 to 40%) and 2 (an area in which the surface of tomato was completely colored in red was 40 to 70%) in the data set on tomato [2] (Day 1, room temperature (25-30° C.)); 0 (an area in which the surface of tomato was colored in pink was 10% or less) and 1 (an area in which the surface of tomato was completely colored in red was 10 to 40%) and 2 (an area in which the surface of tomato was completely colored in red was 40 to 70%) and 3 (an area in which the surface of tomato was completely colored in red was 70% or more and the bottom area remained green) in the data set with tomato [2] (Day 2, room temperature (25-30° C.)); 1 (an area in which the surface of tomato was completely colored in red was 10 to 40%) (2×) and 3 (an area in which the surface of tomato was completely colored in red was 70% or more and the bottom area remained green) and 4 in the data set on tomato [2] (Day 3, room temperature (25-30° C.)). In addition, the “reddening level (grade 0 to 5)” value is 0 (an area in which the surface of tomato was colored in pink was 10% or less) (2×) and 1 (an area in which the surface of tomato was completely colored in red was 10 to 40%) and 2 (an area in which the surface of tomato was completely colored in red was 40 to 70%) with tomato [3] (100 μM, Day 0, room temperature (25-30° C.)); 0 (an area in which the surface of tomato was colored in pink was 10% or less) (2×) and 2 (an area in which the surface of tomato was completely colored in red was 40 to 70%) (2×) in the data set on tomato [3] (100 μM, Day 1, room temperature (25-30° C.)); 0 (an area in which the surface of tomato was colored in pink was 10% or less) and 1 (an area in which the surface of tomato was completely colored in red was 10 to 40%) and 3 (an area in which the surface of tomato was completely colored in red was 70% or more and the bottom area remained green) (2×) with tomato [3] (100 μM, Day 2, room temperature (25-30° C.)); 1 (an area in which the surface of tomato was completely colored in red was 10 to 40%) and 2 (an area in which the surface of tomato was completely colored in red was 40 to 70%) and 3 (an area in which the surface of tomato was completely colored in red was 70% or more and the bottom area remained green) and 4 in the data set on tomato [3] (100 μM, Day 3, room temperature (25-30° C.)); 0 (an area in which the surface of tomato was colored in pink was 10% or less) (2×) and 1 (an area in which the surface of tomato was completely colored in red was 10 to 40%) and 2 (an area in which the surface of tomato was completely colored in red was 40 to 70%) in the data set with tomato [3] (1.0 mM, Day 0, room temperature (25-30° C.)); 0 (an area in which the surface of tomato was colored in pink was 10% or less) (2×) and 1 (an area in which the surface of tomato was completely colored in red was 10 to 40%) and 2 (an area in which the surface of tomato was completely colored in red was 40 to 70%) with tomato [3] (1.0 mM, Day 1, room temperature (25-30° C.)). Moreover, the “reddening level (grade 0 to 5)” value in the data set on tomato [3] (1.0 mM, Day 2, room temperature (25-30° C.)) was 0 (an area in which the surface of tomato was colored in pink was 10% or less) (2×) and 1 (an area in which the surface of tomato was completely colored in red was 10 to 40%) and 2 (an area in which the surface of tomato was completely colored in red was 40 to 70%); in the data set with tomato [3] (1.0 mM, Day 3, room temperature (25-30° C.)), 0 (an area in which the surface of tomato was colored in pink was 10% or less) and 1 (an area in which the surface of tomato was completely colored in red was 10 to 40%) and 2 (an area in which the surface of tomato was completely colored in red was 40 to 70%) and 3 (an area in which the surface of tomato was completely colored in red was 70% or more and the bottom area remained green). The “chemical stability (in words)” value in data set [4] was “much more stable”. The “Stability (relative chemical stability, based on cyclopropenes having a chain length of 1)” value in data set [4] (1H-NMR, CDCl3, stored at −20° C. or room temperature, relative to chain length 1) was >>10.
